System: MEK
Test: Cellular assay for measuring MEK inhibition, C26CPA1 (inhibition of ERK phosphorylation in C26 cells)
Type: cell-based, murine
Conditions: for IC50: murine colon 26 (C26) carcinoma cells, one hour at 37 C; for C26CPA1 % Inhibition @ 0.1 μM / C26CPA1 % Inhibition @ 1 μM: C26 cells
Protocol: Cellular Assay for Measuring MEK Inhibition
MEK inhibitors were evaluated by determining their ability to inhibit phosphorylation of MAP kinase (ERK) in murine colon 26 (C26) carcinoma cells. Since ERK1 and ERK2 represent the only known substrates for MEK1 and MEK2, the measurement of inhibition of ERK phosphorylation in cells provides direct read out of cellular MEK inhibition by the compounds of the invention. Detection of phosphorylation of ERK was carried out either by Western blot or ELISA format. Briefly, the assays involve treatment of exponentially growing C26 cells with varying concentrations of the test compound (or vehicle control) for one hour at 37≡ C. For Western blot assay, cells were rinsed free of compound/vehicle and lysed in a solution containing 70 mM NaCl, 50 mM glycerol phosphate, 10 mM HEPES, […], 1% Triton X-100, 1 mM Na3VO4, 100 μM PMSF, 10 μM leupeptin and 10 μM pepstatin. Supernatants were then subjected to gel electrophoresis and hybridized to a primary antibody recognizing dually phosphorylated ERK1 and ERK2. To evaluate total MAPK levels, blots were subsequently ‘stripped’ and re-probed with a 1:1 mixture of polyclonal antibodies recognizing unphosphorylated ERK1 and ERK2. For pERK ELISA assay, pERK TiterZyme Enzyme immunometric Assay kits were acquired from Assay Designs, Inc (Ann Arbor, Mich.). Briefly, cells were harvested in lysis solution containing 50 mM β-glycerophosphate, 10 mM HEPES, pH7.4, 70 mM NaCl, 2 mM EDTA and 1% SDS and protein lysates were diluted 1:15 with supplied Assay buffer prior to the execution of the assay. The subsequent steps were carried out essentially as recommended by the manufacturer.

SMILES	IC50	C26CPA1 % Inhibition @ 0.1 μM	C26CPA1 % Inhibition @ 1 μM
Nc1nnc(-c2cc(Cl)c(F)c(F)c2Nc2ccc(I)cc2F)o1 [Example 2, 5-[5-Chloro-3,4-difluoro-2-(2-fluoro-4-iodo-phenylamino)-phenyl]-[1,3,4]oxadiazol-2-ylamine]	18 nM		
Nc1nnc(-c2ccc(F)c(F)c2Nc2ccc(Br)cc2F)o1 [Example 3, 5-[2-(4-Bromo-2-fluoro-phenylamino)-3,4-difluoro-phenyl]-[1.3,4]oxadiazol-2-ylamine]	140 nM		
Fc1cc(I)ccc1Nc1c(-c2nnc(NCCCN3CCOCC3)o2)ccc(F)c1F [Example 9, {5-[3,4-Difluoro-2-(2-fluoro-4-iodo-phenylamino)-phenyl]-[1,3,4]oxadiazol-2-yl}-(3-morpholin-4-yl-propyl)-amine]	311 nM		
CN(C)CCCN(C)c1nnc(-c2ccc(F)c(F)c2Nc2ccc(I)cc2F)o1 [Example 12, N-{5-[3,4-Difluoro-2-(2-fluoro-4-iodo-phenylamino)-phenyl]-[1,3,4]oxadiazol-2-yl}-N,N′,N′-trimethyl-propane-1,3-diamine]	> 1000 nM		
Fc1cc(I)ccc1Nc1c(-c2nnc(NCCN3CCCCC3)o2)ccc(F)c1F [Example 13, {5-[3,4-Difluoro-2-(2-fluoro-4-iodo-phenylamino)-phenyl]-[1,3,4]oxadiazol-2-yl}-(2-piperidin-1-yl-ethyl)-amine]	382 nM		
NCCCCNc1nnc(-c2ccc(F)c(F)c2Nc2ccc(I)cc2F)o1 [Example 14, N′1′-{5-[3,4-Difluoro-2-(2-fluoro-4-iodo-phenylamino)-phenyl]-[1,3,4]oxadiazol-2-yl}-butane-1,4-diamine]	45 nM		
NCCCNc1nnc(-c2ccc(F)c(F)c2Nc2ccc(I)cc2F)o1 [Example 15, N′1′-{5-[3,4-Difluoro-2-(2-fluoro-4-iodo-phenylamino)-phenyl]-[1,3,4]oxadiazol-2-yl}-propane-1,3-diamine]	76 nM		
CN(C)CCCNc1nnc(-c2ccc(F)c(F)c2Nc2ccc(I)cc2F)o1 [Example 16, N-{5-[3,4-Difluoro-2-(2-fluoro-4-iodo-phenylamino)-phenyl]-[1,3,4]oxadiazol-2-yl}-N′,N′-dimethyl-propane-1,3-diamine]	136 nM		
CN(C)CCNc1nnc(-c2ccc(F)c(F)c2Nc2ccc(I)cc2F)o1 [Example 17, N-{5-[3,4-Difluoro-2-(2-fluoro-4-iodo-phenylamino)-phenyl]-[1,3,4]oxadiazol-2-yl}-N′,N′-dimethyl-ethane-1,2-diamine]	140 nM		
CNCCNc1nnc(-c2ccc(F)c(F)c2Nc2ccc(I)cc2F)o1 [Example 18, N-{5-[3,4-Difluoro-2-(2-fluoro-4-iodo-phenylamino)-phenyl]-[1,3,4]oxadiazol-2-yl}-N′-methyl-ethane-1,2-diamine]	27 nM		
COCCCNc1nnc(-c2ccc(F)c(F)c2Nc2ccc(I)cc2F)o1 [Example 20, {5-[3,4-Difluoro-2-(2-fluoro-4-iodo-phenylamino)-phenyl]-[1,3,4]oxadiazol-2-yl}-(3-methoxy-propyl)-amine]	80 nM		
COCCNc1nnc(-c2ccc(F)c(F)c2Nc2ccc(I)cc2F)o1 [Example 33, {5-[3,4-Difluoro-2-(2-fluoro-4-iodo-phenylamino)-phenyl]-[1,3,4]oxadiazol-2-yl}-(2-methoxy-ethyl)-amine]		0%	57.7%
Fc1cc(I)ccc1Nc1c(-c2nnc(NCCOc3ccccc3)o2)ccc(F)c1F [Example 34, {5-[3,4-Difluoro-2-(2-fluoro-4-iodo-phenylamino)-phenyl]-[1,3,4]oxadiazol-2-yl}-(2-phenoxy-ethyl)-amine]		0%	69%
Fc1cc(I)ccc1Nc1c(-c2nnc(NCCc3ccncc3)o2)ccc(F)c1F [Example 35, {5-[3,4-Difluoro-2-(2-fluoro-4-iodo-phenylamino)-phenyl]-[1,3,4]oxadiazol-2-yl}-(2-pyridin-4-yl-ethyl)-amine]		0%	74.9%
CCCCNc1nnc(-c2ccc(F)c(F)c2Nc2ccc(I)cc2F)o1 [Example 36, Butyl-{5-[3,4-difluoro-2-(2-fluoro-4-iodo-phenylamino)-phenyl]-[1,3,4]oxadiazol-2-yl}-amine]		23.8%	67%
Cc1ccc(CNc2nnc(-c3ccc(F)c(F)c3Nc3ccc(I)cc3F)o2)o1 [Example 37, {5-[3,4-Difluoro-2-(2-fluoro-4-iodo-phenylamino)-phenyl]-[1,3,4]oxadiazol-2-yl}-(5-methyl-furan-2-ylmethyl)-amine]		18.4%	87.2%
Fc1cc(I)ccc1Nc1c(-c2nnc(NCCc3cccs3)o2)ccc(F)c1F [Example 38, {5-[3,4-Difluoro-2-(2-fluoro-4-iodo-phenylamino)-phenyl]-[1,3,4]oxadiazol-2-yl}-(2-thiophen-2-yl-ethyl)-amine]		0%	65.1%
COc1cccc(CCNc2nnc(-c3ccc(F)c(F)c3Nc3ccc(I)cc3F)o2)c1 [Example 39, {5-[3,4-Difluoro-2-(2-fluoro-4-iodo-phenylamino)-phenyl]-[1,3,4]oxadiazol-2-yl}-[2-(3-methoxy-phenyl)-ethyl]-amine]		0%	40.2%
COc1ccc(CCNc2nnc(-c3ccc(F)c(F)c3Nc3ccc(I)cc3F)o2)cc1OC [Example 40, {5-[3,4-Difluoro-2-(2-fluoro-4-iodo-phenylamino)-phenyl]-[1,3,4]oxadiazol-2-yl}-[2-(3,4-dimethoxy-phenyl)-ethyl]-amine]		0%	26.2%
COc1ccc(OC)c(CCNc2nnc(-c3ccc(F)c(F)c3Nc3ccc(I)cc3F)o2)c1 [Example 41, {5-[3,4-Difluoro-2-(2-fluoro-4-iodo-phenylamino)-phenyl]-[1,3,4]oxadiazol-2-yl}-[2-(2,5-dimethoxy-phenyl)-ethyl]-amine]		0%	29.8%
COc1ccc(CCN(C)c2nnc(-c3ccc(F)c(F)c3Nc3ccc(I)cc3F)o2)cc1OC [Example 42, {5-[3,4-Difluoro-2-(2-fluoro-4-iodo-phenylamino)-phenyl]-[1,3,4]oxadiazol-2-yl}-[2-(3,4-dimethoxy-phenyl)-ethyl]-methyl-amine]		8.3%	10%
CN(CCc1ccncc1)c1nnc(-c2ccc(F)c(F)c2Nc2ccc(I)cc2F)o1 [Example 43, {5-[3,4-Difluoro-2-(2-fluoro-4-iodo-phenylamino)-phenyl]-[1,3,4]oxadiazol-2-yl}-methyl-(2-pyridin-4-yl-ethyl)-amine]		26.6%	31.7%
CN(CCc1ccccn1)c1nnc(-c2ccc(F)c(F)c2Nc2ccc(I)cc2F)o1 [Example 44, {5-[3,4-Difluoro-2-(2-fluoro-4-iodo-phenylamino)-phenyl]-[1,3,4]oxadiazol-2-yl}-methyl-(2-pyridin-2-yl-ethyl)-amine]		5.2%	19%
CCCNc1nnc(-c2ccc(F)c(F)c2Nc2ccc(I)cc2F)o1 [Example 45, {5-[3,4-Difluoro-2-(2-fluoro-4-iodo-phenylamino)-phenyl]-[1,3,4]oxadiazol-2-yl}-propyl-amine]		3.1%	31.4%
CCC(C)Nc1nnc(-c2ccc(F)c(F)c2Nc2ccc(I)cc2F)o1 (stereo not shown) [Example 46, sec-Butyl-{5-[3,4-difluoro-2-(2-fluoro-4-iodo-phenylamino)-phenyl]-[1,3,4]oxadiazol-2-yl}-amine]		31.2%	31.6%
CC(C)(C)CNc1nnc(-c2ccc(F)c(F)c2Nc2ccc(I)cc2F)o1 [Example 47, {5-[3,4-Difluoro-2-(2-fluoro-4-iodo-phenylamino)-phenyl]-[1,3,4]oxadiazol-2-yl}-(2,2-dimethyl-propyl)-amine]		18.9%	43.2%
CC(C)CNc1nnc(-c2ccc(F)c(F)c2Nc2ccc(I)cc2F)o1 [Example 48, {5-[3,4-Difluoro-2-(2-fluoro-4-iodo-phenylamino)-phenyl]-[1,3,4]oxadiazol-2-yl}-isobutyl-amine]		31.7%	66.9%

From patent publication US20050004186A1, “MEK inhibiting compounds” (Pfizer Inc, priority 2002, published 2005)
